PubChem BioAssay (NCI)
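96-well plates; 48 h exposure; 5 concentrations. Endpoints by linear interpolation between flanking doses. Not reached: highest tested concentration assigned. The concentration for 50% growth inhibition is given as GI50. TGI marks complete inhibition of growth.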

system: MDA-MB-231 breast; test: NCI-60 cell line screen, 48 h

| SMILES | GI50 [µM] | TGI [µM] |
| --- | --- | --- |
| COc1cc2c(cc1OCCCNC(=O)c1cccc3c(=O)c4ccccc4[nH]c13)N=C[C@@H]1CCCN1C2=O | < 0.01 | < 0.0484 |
| COc1cccc2c1C(=O)c1c(O)c3c(c(O)c1C2=O)C[C@](O)(C(=O)CO)C[C@H]3O[C@@H]1C[C@@H](NC(=O)CCCCCN(C)C2(c3ccc(F)cc3)CC3CCC2C3)[C@H](O)[C@@H](C)O1 (stereo partly specified) | 1 | 2.63 |
| COc1ccc(Nc2nnc(-c3cc(O)ccc3O)s2)cc1 | 9.65 | 31.1 |
| Cn1cc(-c2csc(-c3c[nH]c4ccc(F)cc34)n2)c2cnccc21 | 1.46 | 2.93 |
| O=C1Nc2ccccc2/C1=N\[O-].O=C1Nc2ccccc2/C1=N\[O-].[Cu+2] | > 100 | > 100 |
| CCOC(=O)Nc1ccc(C)c(NC(=O)OCC)c1 | – | > 100 |

system: OVCAR-8 ovarian; test: NCI-60 cell line screen, 48 h

| SMILES | GI50 [µM] | TGI [µM] |
| --- | --- | --- |
| O=C(Nc1ccncc1)C(=O)c1cn(S(=O)(=O)c2ccc(F)cc2)c2ccccc12 | 4.33 | > 100 |
| COc1ccc(C(=O)/C=C/c2cc(-c3cc(OC)c(OC)c(OC)c3)n[nH]2)cc1OC | 1.32 | 2.73 |
| O=C(c1ccccc1Br)C(F)(F)F | – | > 100 |
| O=C1OCC2=C1C(c1cccc(Br)c1)c1cc3c(cc1N2CCO)CCC3 (stereo unspecified) | 0.14 | 0.852 |
| COc1ccc(NC(=O)/C(Cc2cc(=O)oc3cc(O)ccc23)=N\NC(C)(C)C)c(OC)c1 | – | > 100 |
| O=C1/C(=C/c2ccc3c(c2)OCO3)SC2C=Nc3ccccc3N12 (stereo unspecified) | – | > 100 |
| CCOc1ccc(NC(=O)C(=O)CC(=O)c2c(C)n([O-])c3ccccc3[n+]2=O)cc1 | – | > 100 |
| Cc1cc(Cl)ccc1NC(=O)C(=O)Cc1nc2ccccc2o1 | – | > 100 |
| OCC1OC(c2nc(C3=NCCCN3)cs2)C(O)C1O (stereo unspecified) | – | > 100 |
| Oc1cccnc1[Se] | – | > 100 |
| O=C1C=CC(=O)c2cc3cc(CBr)ccc3cc21 | 5.88 | > 77.3 |
| CCC(C)COC(=O)c1ccc(N=Cc2ccc(C=Nc3ccc(C(=O)OCC(C)CC)cc3)cc2)cc1 (stereo unspecified) | – | > 100 |
| COc1cc(F)ccc1-c1ncnc(Nc2cccc(CS(C)(=N)=O)c2)n1 (stereo unspecified) | 1.16 | > 100 |
| Cc1cc(N(CCC#N)CCC#N)ccc1N=Nc1ccc(C(=O)O)cc1 | – | > 100 |
| [Cl][Hg][c]1cc[c]([Hg][Cl])o1 | 3.39 | 34.6 |
| CN(C)CC1CCCC/C1=N/OC(=O)c1ccc(Cl)cc1 (stereo unspecified) | – | > 100 |
| COc1cccc(C2=NC(C(C)C)CO2)c1 (stereo unspecified) | – | > 100 |
| O=C1/C(=C/c2cccc(Cl)c2Cl)N=C(c2ccccc2)N1C1CC1 | 26.5 | > 50 |
| CCOC(=O)C(=[N+]=[N-])[Si](C)(C)C | – | > 100 |

| SMILES | GI50 [µM] | TGI [µM] |
| --- | --- | --- |
| CN(C)C(n1cc2c(c1)-c1ccc(Cl)cc1C(c1ccccc1F)=NC2)n1cc2c(c1)-c1ccc(Cl)cc1C(c1ccccc1F)=NC2 | – | > 100 |
| CCCc1nc(NC#N)nc(C(=O)Nc2ccccc2)c1CC | – | > 100 |
| O=C(CCc1n[nH]c(=S)o1)Nc1ccccc1C(F)(F)F | – | > 100 |
| COc1cc2c(cc1OCCCNC(=O)c1cccc3c(=O)c4ccccc4[nH]c13)N=C[C@@H]1CCCN1C2=O | 0.01 | – |
| Cc1ccc(NC(=O)CCc2cc(C(C)(C)C)nc(=S)[nH]2)cc1C | – | > 100 |
| Cc1[nH]c2ccccc2c1C(=O)/C=C/c1ccccc1O | – | > 100 |
| O=C(Nc1nc(=S)c2c(ncn2CCOC(=O)c2ccccc2)[nH]1)c1ccccc1 | – | > 100 |
| COc1cccc2c1C(=O)c1c(O)c3c(c(O)c1C2=O)C[C@](O)(C(=O)CO)C[C@H]3O[C@@H]1C[C@@H](NC(=O)CCCCCN(C)C2(c3ccc(F)cc3)CC3CCC2C3)[C@H](O)[C@@H](C)O1 (stereo partly specified) | 1.18 | 3.94 |
| COc1ccc(CC2NCCc3c2[nH]c2ccccc32)cc1 (stereo unspecified) | – | > 100 |
| CCOc1ccc(NC(=O)CC#N)cc1 | – | > 100 |
| O=C(/C=C/c1cccc2ccccc12)c1ccccc1Cl | – | 26.7 |
| COc1ccc(Nc2nnc(-c3cc(O)ccc3O)s2)cc1 | 30.4 | > 50 |
| Cc1ccc(/C=C/C(=O)c2sc(-c3nc(C)c(C(=O)/C=C/c4ccc(C)cc4)s3)nc2C)cc1 | – | > 100 |
| O=C1/C(=C/c2ccc(Cl)cc2)CCC1CCN1CCOCC1 (stereo unspecified) | – | > 100 |
| O=C1Nc2ccccc2/C1=N\[O-].O=C1Nc2ccccc2/C1=N\[O-].[Cu+2] | > 100 | > 100 |
| CCC[CH2][Sn]([Cl])([CH2]CCC)[CH2]CCC | 0.145 | 0.287 |
| CCOC(=O)Nc1ccc(C)c(NC(=O)OCC)c1 | – | > 100 |
| O=c1ccn([C@H]2CSC[C@@H](CO)C2)c(=O)[nH]1 | – | > 100 |
| C1CN2CCN3CCN4CCN1[P+]243 | – | > 100 |

system: OVCAR-4 ovarian; test: NCI-60 cell line screen, 48 h

| SMILES | GI50 [µM] | TGI [µM] |
| --- | --- | --- |
| COc1cc(NCc2ccc3nc(N)nc(N)c3c2C)cc(OC)c1OC (tested in a mixture with another compound) | 0.15 | 99.8 |
| O=C(Nc1ccncc1)C(=O)c1cn(S(=O)(=O)c2ccc(F)cc2)c2ccccc12 | 23.1 | > 100 |
| COc1ccc(C(=O)/C=C/c2cc(-c3cc(OC)c(OC)c(OC)c3)n[nH]2)cc1OC | 2.69 | 16.6 |
| O=C(c1ccccc1Br)C(F)(F)F | – | > 100 |
| O=C1OCC2=C1C(c1cccc(Br)c1)c1cc3c(cc1N2CCO)CCC3 (stereo unspecified) | 0.168 | 16 |
| COc1ccc(NC(=O)/C(Cc2cc(=O)oc3cc(O)ccc23)=N\NC(C)(C)C)c(OC)c1 | – | > 100 |
| O=C1/C(=C/c2ccc3c(c2)OCO3)SC2C=Nc3ccccc3N12 (stereo unspecified) | – | > 100 |
| CCOc1ccc(NC(=O)C(=O)CC(=O)c2c(C)n([O-])c3ccccc3[n+]2=O)cc1 | – | > 100 |
| Cc1cc(Cl)ccc1NC(=O)C(=O)Cc1nc2ccccc2o1 | – | > 100 |
| OCC1OC(c2nc(C3=NCCCN3)cs2)C(O)C1O (stereo unspecified) | – | > 100 |
| CCC(C)COC(=O)c1ccc(N=Cc2ccc(C=Nc3ccc(C(=O)OCC(C)CC)cc3)cc2)cc1 (stereo unspecified) | – | > 100 |
| COc1cc(F)ccc1-c1ncnc(Nc2cccc(CS(C)(=N)=O)c2)n1 (stereo unspecified) | 2.4 | > 100 |
| Cc1cc(N(CCC#N)CCC#N)ccc1N=Nc1ccc(C(=O)O)cc1 | – | > 100 |
| [Cl][Hg][c]1cc[c]([Hg][Cl])o1 | 1.63 | 4.24 |
| CN(C)CC1CCCC/C1=N/OC(=O)c1ccc(Cl)cc1 (stereo unspecified) | – | > 100 |
| N#CC(C(=O)C(=O)C(C#N)c1ccc(Br)cc1)c1ccc(Br)cc1 (stereo unspecified) | – | 24.9 |
| COc1cccc(C2=NC(C(C)C)CO2)c1 (stereo unspecified) | – | > 100 |

| SMILES | GI50 [µM] | TGI [µM] |
| --- | --- | --- |
| CCOC(=O)C(=[N+]=[N-])[Si](C)(C)C | – | > 100 |
| CN(C)C(n1cc2c(c1)-c1ccc(Cl)cc1C(c1ccccc1F)=NC2)n1cc2c(c1)-c1ccc(Cl)cc1C(c1ccccc1F)=NC2 | – | > 100 |
| O=C(CCc1n[nH]c(=S)o1)Nc1ccccc1C(F)(F)F | – | > 100 |
| COc1cc2c(cc1OCCCNC(=O)c1cccc3c(=O)c4ccccc4[nH]c13)N=C[C@@H]1CCCN1C2=O | < 0.01 | 10.8 |
| Cc1[nH]c2ccccc2c1C(=O)/C=C/c1ccccc1O | – | > 100 |
| O=C(Nc1nc(=S)c2c(ncn2CCOC(=O)c2ccccc2)[nH]1)c1ccccc1 | – | 57.7 |
| COc1cccc2c1C(=O)c1c(O)c3c(c(O)c1C2=O)C[C@](O)(C(=O)CO)C[C@H]3O[C@@H]1C[C@@H](NC(=O)CCCCCN(C)C2(c3ccc(F)cc3)CC3CCC2C3)[C@H](O)[C@@H](C)O1 (stereo partly specified) | 1.09 | 2.69 |
| COc1ccc(CC2NCCc3c2[nH]c2ccccc32)cc1 (stereo unspecified) | – | > 100 |
| CCOc1ccc(NC(=O)CC#N)cc1 | – | > 100 |
| O=C(/C=C/c1cccc2ccccc12)c1ccccc1Cl | – | 28.5 |
| COc1ccc(Nc2nnc(-c3cc(O)ccc3O)s2)cc1 | 11.7 | > 50 |
| O=C1/C(=C/c2ccc(Cl)cc2)CCC1CCN1CCOCC1 (stereo unspecified) | – | > 100 |
| Cn1cc(-c2csc(-c3c[nH]c4ccc(F)cc34)n2)c2cnccc21 | 1.6 | 3.06 |
| O=C1Nc2ccccc2/C1=N\[O-].O=C1Nc2ccccc2/C1=N\[O-].[Cu+2] | > 100 | > 100 |
| CCC[CH2][Sn]([Cl])([CH2]CCC)[CH2]CCC | 0.0998 | 0.242 |
| O=c1ccn([C@H]2CSC[C@@H](CO)C2)c(=O)[nH]1 | – | > 100 |
| C1CN2CCN3CCN4CCN1[P+]243 | – | > 100 |
